Measurements: patent publication US7476754B2, “Biphenyl derived thiamides as calpain inhibitors” (Consejo Superior de Investigaciones Cientificas, priority 2004, dated 2009)

These compounds were tested against T1, calpain I (Sus scrofa, UniProt P35750) (assay: Enzyme activity test: inhibition of calpain (EnzCheck protease assay kit, BODIPY FL casein, fluorescence)). Details: calpain I from porcine erythrocytes; BODIPY FL casein substrate; Tris-HCl pH 7.8; triplicate.
T1 construct: The calpain I from porcine erythrocytes; purchased CALBIOCHEM; host or cells: porcine erythrocytes (tissue-purified)
T1 sequence (P35750 1-714): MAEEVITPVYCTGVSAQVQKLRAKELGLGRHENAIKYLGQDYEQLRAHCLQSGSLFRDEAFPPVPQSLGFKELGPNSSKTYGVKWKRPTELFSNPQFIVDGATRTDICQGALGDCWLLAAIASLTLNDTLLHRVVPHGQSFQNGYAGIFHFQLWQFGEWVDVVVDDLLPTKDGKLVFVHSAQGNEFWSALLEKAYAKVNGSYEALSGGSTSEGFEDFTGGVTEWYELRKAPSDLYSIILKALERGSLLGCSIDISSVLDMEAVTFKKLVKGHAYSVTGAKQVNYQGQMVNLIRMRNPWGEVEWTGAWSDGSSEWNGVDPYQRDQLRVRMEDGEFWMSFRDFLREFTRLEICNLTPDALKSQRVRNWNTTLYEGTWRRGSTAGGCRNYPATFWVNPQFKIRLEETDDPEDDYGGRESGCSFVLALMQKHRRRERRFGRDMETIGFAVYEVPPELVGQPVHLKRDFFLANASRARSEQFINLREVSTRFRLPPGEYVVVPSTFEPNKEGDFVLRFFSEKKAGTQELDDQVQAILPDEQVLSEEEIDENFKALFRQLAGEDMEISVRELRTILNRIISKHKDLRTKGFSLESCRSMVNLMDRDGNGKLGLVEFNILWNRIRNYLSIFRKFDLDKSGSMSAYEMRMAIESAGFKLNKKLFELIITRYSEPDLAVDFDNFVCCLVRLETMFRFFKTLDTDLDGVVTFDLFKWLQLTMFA
T1 sequence (P04574 1-266 partner): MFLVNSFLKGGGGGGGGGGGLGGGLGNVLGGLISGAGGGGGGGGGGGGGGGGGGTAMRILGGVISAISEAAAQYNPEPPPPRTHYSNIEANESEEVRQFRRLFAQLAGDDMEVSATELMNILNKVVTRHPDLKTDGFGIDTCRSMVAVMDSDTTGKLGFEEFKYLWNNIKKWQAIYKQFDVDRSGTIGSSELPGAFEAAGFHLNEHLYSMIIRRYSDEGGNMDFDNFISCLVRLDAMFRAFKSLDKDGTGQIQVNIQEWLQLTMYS
Assay type: biochemical
Excerpt: The calpain inhibition capacity has been quantified in terms of the value of IC50, which is defined as the concentration of inhibitor that reduces the catalytic activity of an enzyme by half. The lower the value of IC50, the more powerful the inhibitor. Inhibition results on calpain I (the most relevant from a physiological point of view) of some compounds of the present invention are shown in table 1 and in FIG. 1. Given that calpain II, also known as milli-calpain, needs a greater amount of calcium for activation, it might not possibly have such a relevant physiological role since such a concentration of calcium would cause cell death before the milli-calpain could become activated. For this reason, the inhibition tests have been performed for calpain I, though they can be extrapolated for calpain II.
The calpain inhibition capacity has been quantified in terms of the value of IC50, which is defined as the concentration of inhibitor that reduces the catalytic activity of an enzyme by half. The lower the value of IC50, the more powerful the inhibitor. Inhibition results on calpain I (the most relevant from a physiological point of view) of some compounds of the present invention are shown in table 1 and in FIG. 1.
In order to carry out the inhibition test on calpains, we used the EnzCheck® Protease Assay Kit E-338 from Molecular Probes. This kit contains casein marked with BODIPY FL®, freeze-dried from phosphate buffer. Also used as a digestion buffer was Tris-HCl at pH 7.8, containing 2 mM of sodium azide. The calpain I from porcine erythrocytes or calpain II from porcine kidney that were used are commercial products from CALBIOCHEM®. The enzyme stock solution contained 20 mM of imidazol-HCl buffer, pH 6.8, 1 mM EDTA, 1 mM EGTA, 5 mM β-mercaptoethanol, 30% in glycerol.
The synthetic inhibitors were dissolved in 250 μL of DMSO. The tests were conducted on 96-well microplates in a final volume of 200 μL. In order to carry out the test, aliquots of stock solution of calpain were added to 150 μL of a 10 μg/μL solution in digestion buffer in order to obtain a final concentration of 50 ng/mL of enzyme. Minimum quantities were added, between 5 and 20 μL of inhibitor solution in DMSO, previously diluted in order to achieve the desired final concentration of inhibitor, and digestion buffer was added until a volume of 190 μL was achieved. The test commenced by adding 10 μL of 0.05 M CaCl2 solution. For each inhibitor, separate measurements excluding inhibitor, calpain and calcium solution were taken as blanks. All measurements were made in triplicate.
The fluorescence measurements were made in a SPECTRAFLUOR TECAN Corp 93382 spectrum fluorimeter, exciting at 485 nm and taking the reading at 530 nm. The measurement was made over 20 cycles until the measurement of all wells was completed. Stirring was orbital type and took place each cycle.

SMILES | IC50
COC(=O)[C@H](Cc1c[nH]c2ccccc12)NC(=S)c1ccccc1-c1ccccc1C(=S)N[C@@H](Cc1c[nH]c2ccccc12)C(=O)OC [Compound 3, Methyl (S,S)-3-(1H-Indol-3-yl)-2-{[2′-(2-(1H-Indol-3-yl)-1-methoxycarbonyl-ethylthiocarbamoyl)-biphenyl-2-carbothioyl]-amino}-propionate] | 0.038 nM
COC(=O)[C@@H](NC(=S)c1ccccc1-c1ccccc1C(=S)N[C@H](C(=O)OC)C(C)C)C(C)C [Compound 5, Methyl (S,S)-2-{[2′-(1-methoxycarbonyl-2-methyl-propylthiocarbamoyl)-biphenyl-2-carbothioyl]-amino}-3-methyl-butyrate] | 71 nM
COC(=O)[C@@H](NC(=O)c1ccccc1-c1ccccc1C(=S)N[C@H](C(=O)OC)C(C)C)C(C)C [Compound 6, Methyl (S,S)-2-{[2′-(1-methoxycarbonyl-2-methyl-propylthiocarbamoyl)-biphenyl-2-carbonyl]-amino}-3-methyl-butyrate] | 0.052 nM
COC(=O)[C@H](Cc1c[nH]c2ccccc12)NC(=O)c1ccccc1-c1ccccc1C(=S)N[C@@H](Cc1c[nH]c2ccccc12)C(=O)OC [Compound 4, Methyl (S,S)-3-(1H-Indol-3-yl)-2-{[2′-(2-(1H-Indol-3-yl)-1-methoxycarbonyl-ethylthiocarbamoyl)-biphenyl-2-carbonyl]-amino}-propionate] | 69 nM
COC(=O)[C@H](Cc1ccccc1)NC(=S)c1ccccc1-c1ccccc1C(=S)N[C@@H](Cc1ccccc1)C(=O)OC [Compound 1, Methyl (S,S)-3-phenyl-2-{[2′-(2-phenyl-1-methoxycarbonyl-ethylthio-carbamoyl)-biphenyl-2-carbothiol]-amino}—propionate] | 94000 nM

More lines, now with the values ahead:

IC50 | SMILES
63000 nM | COC(=O)[C@H](Cc1ccccc1)NC(=O)c1ccccc1-c1ccccc1C(=S)N[C@@H](Cc1ccccc1)C(=O)OC [Compound 2, Methyl (S,S)-3-phenyl-2-{[2′-(2-phenyl-1-methoxycarbonyl-ethylthio-carbamoyl)-biphenyl-2-carbonyl]-amino}-propionate]
12000 nM | COC(=O)[C@H](Cc1ccc(O)cc1)NC(=O)c1ccccc1-c1ccccc1C(=S)N[C@@H](Cc1ccc(O)cc1)C(=O)OC [Compound 8]
796 nM | COC(=O)[C@H](Cc1ccc(O)cc1)NC(=S)c1ccccc1-c1ccccc1C(=S)N[C@@H](Cc1ccc(O)cc1)C(=O)OC [Compound 7]
